From patent US10092657B2, “Opsonized β-glucan preparations and methods” (Biothera, Inc., priority 2011, dated 2018)

What was measured:
human neutrophils = assay: Binding studies on the role of complement proteins in serum, neutrophils; type: cell-based
Procedure: (§1) Heat-inactivated (HI) serum was prepared by incubating serum in a 56° C. water bath for 30 minutes. […] Treatment of serum with methylamine (MA) was done by incubating serum with 0.67% of methylamine for 2.5 hours at 37° C., followed by three washes with DPBS using Amicon centrifugal filter unit with a 3K MW cut-off (Millipore, Billerica, Mass.). DPBS-treated serum was prepared in the same manner and used as control serum for MA-treated serum. For blocking of factor D in the serum, 166-32 at concentration 20 μg/mL was incubated with serum on ice for 30 minutes, and then used for binding studies. For binding experiments in the presence of EGTA or MgEGTA, serum was incubated with 10 mM EGTA with or without 10 mM MgCl2 for 10 minutes at room temperature. The untreated and EGTA/MgEGTA-treated serum was then used to pre-treat PGG and perform binding studies as described earlier.

iC3b = molecular target: T1, iC3b (Homo sapiens, UniProt P01024); assay: ELISA for iC3b deposition on immobilized PGG β-glucan; type: binding; details: 300 μg/mL immobilized
T1 construct: from tissue
T1 sequence (P01024 749-1303 limits assumed): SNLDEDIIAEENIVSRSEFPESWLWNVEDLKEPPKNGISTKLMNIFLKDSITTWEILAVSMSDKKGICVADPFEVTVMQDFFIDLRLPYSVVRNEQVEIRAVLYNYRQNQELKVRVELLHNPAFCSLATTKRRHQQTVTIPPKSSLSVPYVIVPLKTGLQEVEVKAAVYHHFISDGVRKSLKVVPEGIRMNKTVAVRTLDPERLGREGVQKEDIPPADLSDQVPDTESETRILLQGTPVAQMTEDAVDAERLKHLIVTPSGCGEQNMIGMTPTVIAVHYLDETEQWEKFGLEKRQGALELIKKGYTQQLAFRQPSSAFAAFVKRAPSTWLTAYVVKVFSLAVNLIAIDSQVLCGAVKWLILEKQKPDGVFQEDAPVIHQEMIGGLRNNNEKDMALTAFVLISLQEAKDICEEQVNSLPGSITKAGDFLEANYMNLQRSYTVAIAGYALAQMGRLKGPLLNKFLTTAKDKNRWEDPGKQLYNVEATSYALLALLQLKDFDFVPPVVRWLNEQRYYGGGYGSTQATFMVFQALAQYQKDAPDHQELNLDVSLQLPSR
T1 sequence (P01024 23-667 partner limits assumed): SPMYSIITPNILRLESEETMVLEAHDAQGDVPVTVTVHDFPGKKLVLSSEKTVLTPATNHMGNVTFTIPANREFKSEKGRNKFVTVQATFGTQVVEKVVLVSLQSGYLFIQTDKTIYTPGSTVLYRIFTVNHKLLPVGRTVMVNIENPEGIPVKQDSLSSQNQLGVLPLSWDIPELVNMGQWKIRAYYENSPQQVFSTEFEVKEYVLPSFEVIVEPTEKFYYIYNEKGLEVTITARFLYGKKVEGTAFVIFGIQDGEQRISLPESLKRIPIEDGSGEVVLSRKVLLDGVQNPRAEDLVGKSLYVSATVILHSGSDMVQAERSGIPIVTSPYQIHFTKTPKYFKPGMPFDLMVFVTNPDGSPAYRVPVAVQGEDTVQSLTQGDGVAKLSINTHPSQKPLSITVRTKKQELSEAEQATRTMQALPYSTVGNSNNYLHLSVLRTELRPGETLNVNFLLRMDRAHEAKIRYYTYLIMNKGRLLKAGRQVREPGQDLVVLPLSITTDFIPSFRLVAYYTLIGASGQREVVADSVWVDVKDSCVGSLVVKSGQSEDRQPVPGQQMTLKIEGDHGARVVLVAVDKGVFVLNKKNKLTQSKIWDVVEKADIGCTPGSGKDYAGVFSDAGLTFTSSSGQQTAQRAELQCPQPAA
T1 sequence (P01024 1321-1663 partner limits assumed): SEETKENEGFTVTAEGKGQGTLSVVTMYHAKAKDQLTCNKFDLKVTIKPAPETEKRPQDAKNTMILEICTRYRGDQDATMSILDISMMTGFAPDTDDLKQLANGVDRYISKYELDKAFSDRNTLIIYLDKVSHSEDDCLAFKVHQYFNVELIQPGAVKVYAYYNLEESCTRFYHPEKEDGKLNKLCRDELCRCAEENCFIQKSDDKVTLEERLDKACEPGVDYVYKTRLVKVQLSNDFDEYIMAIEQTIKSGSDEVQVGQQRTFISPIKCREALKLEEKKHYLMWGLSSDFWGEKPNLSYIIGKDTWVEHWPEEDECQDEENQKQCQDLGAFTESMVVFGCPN
Procedure: PGG β-glucan or dextran was immobilized on wells of a 96-well polystyrene plate (COSTAR, Coming, Inc., Lowell, Mass.) by drying the glucans at 50° C. followed by UV cross-linking. The glucan-coated plate was first blocked with 1% BSA before incubation with untreated serum or serum undergone various treatments as described in binding studies, diluted 1:2 with wash buffer (PBS/0.05% Tween-20) for 30 minutes at 37° C. After washing the serum from the plate, the bound iC3b was probed using the anti-iC3b monoclonal antibody followed by biotin-labeled goat anti-mouse IgG Ab. The amount of immobilized biotin-labeled antibody was determined using streptavidin peroxidase and TMB substrate solution (KPL, Gaithersburg, Md.). OD450 of each well was measured with the spectrophotometer SpectraMAX 250 (Molecular Devices, Sunnyvale, Calif.). Fold change was calculated as OD450 of wells containing immobilized β-glucan divided by OD450 of wells containing no β-glucan, both incubated in the presence of treated or untreated serum.

human monocytes = assay: Binding studies on the role of complement proteins in serum, monocytes; type: cell-based
Procedure: as §1

β(1,6)-[poly-1,3)-D-glucopyranosyl]-poly-β(1,3)-D-glucopyranose [PGG β-glucan]
Binding in the presence of heat inactivated (HI) serum (human neutrophils; 10% HI serum vs regular serum, 200 μg/mL): abrogated | Average percentage of binding inhibition in HI serum (human neutrophils; based on MFI, five donors): 89% | Range of percentage of binding inhibition in HI serum (human neutrophils; based on MFI, five donors): 71-100% | Fold increase of iC3b detected on immobilized glucan compared to background (iC3b; HI serum 30 minutes at 37° C.): significantly less iC3b detected | Fold increase of iC3b detected on immobilized glucan compared to background (iC3b; regular serum 30 minutes at 37° C.): significantly higher | Binding in the presence of heat inactivated (HI) serum (human monocytes; 10% HI serum vs regular serum, 100 μg/mL): abrogated | Average percentage of binding inhibition in HI serum (human monocytes; based on MFI, five donors): 90% | Range of percentage of binding inhibition in HI serum (human monocytes; based on MFI, five donors): 81-100%
